Laboratory results: PMC6719172, “Inhibition of CpLIP2 Lipase Hydrolytic Activity by Four Flavonols (Galangin, Kaempferol, Quercetin, Myricetin) Compared to Orlistat and Their Binding Mechanisms Studied by Quenching of Fluorescence” (Molecules, 2019)

Legend:
[1] = parameters: method as in PMID 24601218, doi:10.1021/ja00090a032; conditions: cited from earlier work
CpLIP2 lipase = CpLIP2 lipase (Candida parapsilosis, UniProt Q8NIN8); test: Quenching of CpLIP2 intrinsic tryptophan fluorescence by flavonols (Stern–Volmer, Lehrer, van't Hoff analysis); assay type: binding; conditions: for KSV (Stern–Volmer quenching constant): CpLIP2 2.5 µM, pH 7.0, flavonol 2.5–25 µM (GAL 2.5–17.5 µM); for Kq (bimolecular quenching constant): Kq = KSV/τ0, τ0 1.59 ns; for KSV (accessible), Stern–Volmer quenching constant of the exposed W residues / fa (fraction of accessible W residues to the quencher): Lehrer equation; for ΔG (free energy change): ΔG = ΔH − TΔS; for Kd: Kd (dissociation constant); for order of magnitude of Kq: all temperatures of Table 1; for ΔS (entropy changes): van't Hoff plot, 298–328 K
From the text: The fluorescence quenching spectra of CpLIP2 lipase submitted to increasing concentrations of GAL, KAE, QUE and MYR are shown in Figure 3. A remarkable quenching of the CpLIP2 fluorescence emission was observed. […] The fluorescence quenching is usually described by the linear Stern–Volmer Equations (2) and (3):(2) F0/F = 1 + Ksv [Q] = 1 + Kqτ0 [Q] (3) Kq=Ksv/τ0 where F0 and F are the intrinsic fluorescence intensities of CpLIP2 lipase (fluorophore) in absence or presence of quencher (flavonol), respectively. Kq is the bimolecular quenching constant, τ0 is the lifetime of the fluorophore in the absence of the quencher, [Q] is the concentration of the quencher, and KSV is the Stern–Volmer quenching constant.
The mechanism of quenching, occurring between CpLIP2 lipase and flavonols, was characterized by determining the values of Kq and the thermodynamic parameters by varying the temperature. […] In both cases, the bimolecular quenching constant Kq can be calculated by the ratio between KSV and τ0, itself determined at 1.59 ns for Human Pancreatic Lipase.
The inaccessible or buried residues are responsible for the remaining fluorescence, which is probably independent of the quencher concentration. […] An up-down curvature towards the x-axis has been shown for the four flavonols (Figure 4), indicating the presence of two populations of fluorophores, part of which would not be accessible. That means that some W residues are buried inside the lipase structure and that other residues are exposed to the solvent. Therefore, data were analyzed through the Lehrer equation, also known as the modified (or non-linear) Stern–Volmer Equation (4):(4) F0/ F0−F = 1/ fa Ksv 1/ [Q] +1/ fa
For static quenching, the equilibrium between free and bound CpLIP2 lipase, when the ligand molecules bind independently to equivalent sites of macromolecules, can be described by the following Equation (5):(5) log10F0−F/F=nlog10[Q]+log10Ka where Ka is the binding constant and n the number of binding sites per CpLIP2 molecule.
The results were determined for all flavonols tested at different temperatures from the plots of log10 F0 − F/F versus log10 [Q] and listed in Table 2. The plots show a linear relationship from which the slope equal to n and intercept on y-axis equal to log10 Ka. For the four flavonols, the Ka values increased when the temperatures increased. In addition, the n values were less than 1.0 in all cases and increased according to the temperature. […] Values of the dissociation constant of complexes were deduced from the Stern–Volmer Equation (6) and (7), for which Kd is expressed as the inverse of fa Ksv product. (6) F0/ F0−F= Kd 1/ [Q] +1 (7) Kd= 1/fa Ksv
Thermodynamic parameters were calculated to determine the type of binding forces that contribute in the CpLIP2 lipase–flavonol interactions. […] Both the enthalpy (ΔH) and entropy changes (ΔS) can be estimated from the following van′t Hoff Equation (8):(8) Ln Ka = − ΔH /RT + ΔS /R
The values of Gibbs binding free energy change (ΔG) are calculated from the following Equation (9):(9) ΔG= ΔH − TΔS
To fill up the volume of 300 µL by well, 190 µL of sodium phosphate buffer solution (75 mM, pH 7.0) was added to each well to obtain final concentration at 50 mM. Then, 100 µL of ethanol absolute–water ultrapure (2:8, v/v) solution was added to obtain a final amount of ethanol […] in the well of 300 µL. […] The final concentration of ethanol during the experiments never exceeded 0.07% (v/v). The last step was to add 10 µL of lipase after to have optimized the final concentration of CpLIP2 equal to 2.5 µM for all our assays, giving the optimal fluorescence intensity for all measurements. The measurement of intrinsic fluorescence started after mechanical shaking for 30 s inside the multi-plate reader. […]

CpLIP2 lipase, sequence (Q8NIN8 entry or part of it): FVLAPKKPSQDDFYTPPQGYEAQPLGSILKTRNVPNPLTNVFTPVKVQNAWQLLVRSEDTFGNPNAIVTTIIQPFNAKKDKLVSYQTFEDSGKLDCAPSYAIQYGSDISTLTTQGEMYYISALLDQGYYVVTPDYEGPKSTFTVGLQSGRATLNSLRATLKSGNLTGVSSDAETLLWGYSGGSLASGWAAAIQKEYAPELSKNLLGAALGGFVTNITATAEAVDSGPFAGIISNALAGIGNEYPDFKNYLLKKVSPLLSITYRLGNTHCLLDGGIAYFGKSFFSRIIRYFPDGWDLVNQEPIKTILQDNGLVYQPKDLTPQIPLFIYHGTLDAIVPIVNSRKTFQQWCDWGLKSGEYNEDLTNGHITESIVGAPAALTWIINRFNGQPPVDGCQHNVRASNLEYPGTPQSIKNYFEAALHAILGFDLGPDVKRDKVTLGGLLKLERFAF

Question: Which results are given for `O=c1c(O)c(-c2cc(O)c(O)c(O)c2)oc2cc(O)cc(O)c12` [MYR, myricetin]?
Answer: pKa1 [1]: 6.6; Ka (association constant) (CpLIP2 lipase; 298 K): 45.21 ± 1 L/mol; n (number of binding sites) (CpLIP2 lipase; 298 K): 0.43 ± 0.02; KSV (Stern–Volmer quenching constant) (CpLIP2 lipase; 298 K): 1.6 ± 0.1 × 10^4 L·mol^−1; Kq (bimolecular quenching constant) (CpLIP2 lipase; 298 K): 1e+13 M⁻¹ s⁻¹; KSV (accessible), Stern–Volmer quenching constant of the exposed W residues (CpLIP2 lipase; 298 K): 290000 L/mol; fa (fraction of accessible W residues to the quencher) (CpLIP2 lipase; 298 K): 0.34; ΔG (free energy change) (CpLIP2 lipase; 298 K): -6.26 kcal/mol; Ka (association constant) (CpLIP2 lipase; 308 K): 53.09 ± 2 L/mol; n (number of binding sites) (CpLIP2 lipase; 308 K): 0.46 ± 0.03; KSV (Stern–Volmer quenching constant) (CpLIP2 lipase; 308 K): 1.3 ± 0.5 × 10^4 L·mol^−1; Kq (bimolecular quenching constant) (CpLIP2 lipase; 308 K): 8.2e+12 M⁻¹ s⁻¹; KSV (accessible), Stern–Volmer quenching constant of the exposed W residues (CpLIP2 lipase; 308 K): 280000 L/mol; fa (fraction of accessible W residues to the quencher) (CpLIP2 lipase; 308 K): 0.32; ΔG (free energy change) (CpLIP2 lipase; 308 K): -6.45 kcal/mol; Ka (association constant) (CpLIP2 lipase; 318 K): 44.79 ± 1 L/mol; n (number of binding sites) (CpLIP2 lipase; 318 K): 0.44 ± 0.02; KSV (Stern–Volmer quenching constant) (CpLIP2 lipase; 318 K): 1.2 ± 0.4 × 10^4 L·mol^−1; Kq (bimolecular quenching constant) (CpLIP2 lipase; 318 K): 7.7e+12 M⁻¹ s⁻¹; KSV (accessible), Stern–Volmer quenching constant of the exposed W residues (CpLIP2 lipase; 318 K): 320000 L/mol; fa (fraction of accessible W residues to the quencher) (CpLIP2 lipase; 318 K): 0.30; ΔG (free energy change) (CpLIP2 lipase; 318 K): -6.67 kcal/mol; Ka (association constant) (CpLIP2 lipase; 328 K): 97.14 ± 2 L/mol; n (number of binding sites) (CpLIP2 lipase; 328 K): 0.51 ± 0.09; KSV (Stern–Volmer quenching constant) (CpLIP2 lipase; 328 K): 1.4 ± 0.5 × 10^4 L·mol^−1; Kq (bimolecular quenching constant) (CpLIP2 lipase; 328 K): 9e+12 M⁻¹ s⁻¹; KSV (accessible), Stern–Volmer quenching constant of the exposed W residues (CpLIP2 lipase; 328 K): 250000 L/mol; fa (fraction of accessible W residues to the quencher) (CpLIP2 lipase; 328 K): 0.33; ΔG (free energy change) (CpLIP2 lipase; 328 K): -6.88 kcal/mol; Kd (CpLIP2 lipase; 298 K): 10 ± 1 µM; Kd (CpLIP2 lipase; 308 K): 11 ± 4 µM; Kd (CpLIP2 lipase; 318 K): 10 ± 4 µM; Kd (CpLIP2 lipase; 328 K): 12 ± 7 µM; fa (fraction of accessible W residues) (CpLIP2 lipase; across temperatures): 0.33; n (number of binding sites) (CpLIP2 lipase; across temperatures): 0.43; order of magnitude of Kq (CpLIP2 lipase): ~10^13 L mol^−1 s^−1; ΔS (entropy changes) (CpLIP2 lipase): 0.10 kJ·mol^−1·K^−1

Question: For `O=c1c(O)c(-c2ccc(O)c(O)c2)oc2cc(O)cc(O)c12` [QUE, quercetin], which “Ka (association constant)” value (CpLIP2 lipase; 298 K) is on record?
Answer: 2034 ± 2 L/mol

Question: And the “n (number of binding sites)” value (CpLIP2 lipase; 298 K)?
Answer: 0.78 ± 0.06

Question: What about the “KSV (Stern–Volmer quenching constant)” value (CpLIP2 lipase; 298 K) of the same molecule?
Answer: 1.8 ± 0.1 × 10^4 L·mol^−1

Question: What about the “Kq (bimolecular quenching constant)” value (CpLIP2 lipase; 298 K) of the same molecule?
Answer: 1.1e+13 M⁻¹ s⁻¹

Question: What about the “KSV (accessible), Stern–Volmer quenching constant of the exposed W residues” value (shortened to “KSV (accessible)”) (CpLIP2 lipase; 298 K) of the same molecule?
Answer: 70000 L/mol

Question: And the “fa (fraction of accessible W residues to the quencher)” value (CpLIP2 lipase; 298 K)?
Answer: 0.54

Question: And the “ΔG (free energy change)” value (CpLIP2 lipase; 298 K)?
Answer: -10.1 kcal/mol

Question: And the “Ka (association constant)” value (CpLIP2 lipase; 308 K)?
Answer: 1824 ± 9 L/mol

Question: What about the “n (number of binding sites)” value (CpLIP2 lipase; 308 K) of the same molecule?
Answer: 0.77 ± 0.05

Question: And the “KSV (Stern–Volmer quenching constant)” value (CpLIP2 lipase; 308 K)?
Answer: 1.6 ± 0.6 × 10^4 L·mol^−1

Question: What about the “Kq (bimolecular quenching constant)” value (CpLIP2 lipase; 308 K) of the same molecule?
Answer: 1e+13 M⁻¹ s⁻¹

Question: What about the “KSV (accessible)” value (CpLIP2 lipase; 308 K) of the same molecule?
Answer: 80000 L/mol

Question: What about the “fa (fraction of accessible W residues to the quencher)” value (CpLIP2 lipase; 308 K) of the same molecule?
Answer: 0.52

Question: And the “ΔG (free energy change)” value (CpLIP2 lipase; 308 K)?
Answer: -10.4 kcal/mol

Question: What about the “Ka (association constant)” value (CpLIP2 lipase; 318 K) of the same molecule?
Answer: 3041 ± 2 L/mol

Question: And the “n (number of binding sites)” value (CpLIP2 lipase; 318 K)?
Answer: 0.81 ± 0.07

Question: What about the “KSV (Stern–Volmer quenching constant)” value (CpLIP2 lipase; 318 K) of the same molecule?
Answer: 1.6 ± 0.6 × 10^4 L·mol^−1

Question: And the “Kq (bimolecular quenching constant)” value (CpLIP2 lipase; 318 K)?
Answer: 1e+13 M⁻¹ s⁻¹

Question: What about the “KSV (accessible)” value (CpLIP2 lipase; 318 K) of the same molecule?
Answer: 70000 L/mol

Question: What about the “fa (fraction of accessible W residues to the quencher)” value (CpLIP2 lipase; 318 K) of the same molecule?
Answer: 0.55

Question: What about the “ΔG (free energy change)” value (CpLIP2 lipase; 318 K) of the same molecule?
Answer: -10.8 kcal/mol

Question: What about the “Ka (association constant)” value (CpLIP2 lipase; 328 K) of the same molecule?
Answer: 4616 ± 3 L/mol

Question: And the “n (number of binding sites)” value (CpLIP2 lipase; 328 K)?
Answer: 0.85 ± 0.11

Question: What about the “KSV (Stern–Volmer quenching constant)” value (CpLIP2 lipase; 328 K) of the same molecule?
Answer: 2.0 ± 0.7 × 10^4 L·mol^−1

Question: And the “Kq (bimolecular quenching constant)” value (CpLIP2 lipase; 328 K)?
Answer: 1.3e+13 M⁻¹ s⁻¹

Question: And the “KSV (accessible)” value (CpLIP2 lipase; 328 K)?
Answer: 50000 L/mol

Question: And the “fa (fraction of accessible W residues to the quencher)” value (CpLIP2 lipase; 328 K)?
Answer: 0.69

Question: What about the “ΔG (free energy change)” value (CpLIP2 lipase; 328 K) of the same molecule?
Answer: -11.1 kcal/mol

Question: And the Kd (CpLIP2 lipase; 298 K)?
Answer: 27 ± 6 µM

Question: What about the Kd (CpLIP2 lipase; 308 K) of the same molecule?
Answer: 24 ± 10 µM

Question: And the Kd (CpLIP2 lipase; 318 K)?
Answer: 25 ± 10 µM

Question: What about the Kd (CpLIP2 lipase; 328 K) of the same molecule?
Answer: 31 ± 13 µM

Question: What about the “fa (fraction of accessible W residues)” value (CpLIP2 lipase; across temperatures) of the same molecule?
Answer: 0.55

Question: What about the “order of magnitude of Kq” value (CpLIP2 lipase) of the same molecule?
Answer: ~10^13 L mol^−1 s^−1

Question: And the “ΔS (entropy changes)” value (CpLIP2 lipase)?
Answer: 0.14 kJ·mol^−1·K^−1
